Assays:
Experiment in all cases: relative viability (nuclei count vs DMSO), 5 days (fraction); higher = more cells survive
NCI-H1563 = tested on: NCI-H1563
Summary of the method: (§1)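 Five library-drug doses in √10 steps were combined with a fixed anchor-drug dose, or a single drug was given alone, by pin tool to lung cancer cell lines in 1536-well plates the day after seeding. Nuclei were stained and counted after 5 days. Relative viability is the nuclei count in treated wells over that in vehicle wells, taken as the median of duplicate plates.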

NCI-H1623 = tested on: NCI-H1623
Summary of the method: as §1

NCI-H2342 = tested on: NCI-H2342
Summary of the method: as §1

NCI-H522 = tested on: NCI-H522
Summary of the method: as §1

SW 900 = tested on: SW 900
Summary of the method: as §1

A549 = tested on: A549
Summary of the method: as §1

Calu-6 = tested on: Calu-6
Summary of the method: as §1

EBC-1 = tested on: EBC-1
Summary of the method: as §1

IA-LM = tested on: IA-LM
Summary of the method: as §1

NCI-H1299 = tested on: NCI-H1299
Summary of the method: as §1

NCI-H1648 = tested on: NCI-H1648
Summary of the method: as §1

NCI-H1703 = tested on: NCI-H1703
Summary of the method: as §1

Compound O=c1[nH]c2ccccc2n1C1CCN(CCCC(c2ccc(F)cc2)c2ccc(F)cc2)CC1 [Pimozide] + Cc1nc(Nc2ncc(C(=O)Nc3c(C)cccc3Cl)s2)cc(N2CCN(CCO)CC2)n1 [Dasatinib] (partner 0.075 µM) has a relative viability (NCI-H1563; first compound 0.08 µM) of 0.474, a relative viability (NCI-H1563; first compound 0.253 µM) of 0.429 and a relative viability (NCI-H1563; first compound 0.8 µM) of 0.484. The relative viability (NCI-H1563; first compound 2.53 µM) was 0.426, the relative viability (NCI-H1563; first compound 8 µM) was 0.459 and the relative viability (NCI-H1623; first compound 0.253 µM) was 0.597. For the same compound, the relative viability (NCI-H1623; first compound 0.8 µM) was 0.536, the relative viability (NCI-H1623; first compound 2.53 µM) was 0.52 and the relative viability (NCI-H1623; first compound 8 µM) was 0.56. It also gave a relative viability (NCI-H2342; first compound 0.08 µM) of 0.33, a relative viability (NCI-H2342; first compound 0.253 µM) of 0.337 and a relative viability (NCI-H2342; first compound 0.8 µM) of 0.339. For the same compound, the relative viability (NCI-H2342; first compound 2.53 µM) was 0.299, the relative viability (NCI-H2342; first compound 8 µM) was 0.323 and the relative viability (NCI-H522; first compound 0.08 µM) was 0.856. For the same compound, the relative viability (NCI-H522; first compound 0.253 µM) was 0.883, the relative viability (NCI-H522; first compound 0.8 µM) was 0.81 and the relative viability (NCI-H522; first compound 2.53 µM) was 0.924. For the same compound, the relative viability (NCI-H522; first compound 8 µM) was 0.86, the relative viability (SW 900; first compound 0.08 µM) was 0.51 and the relative viability (SW 900; first compound 0.253 µM) was 0.816. It also gave a relative viability (SW 900; first compound 0.8 µM) of 0.37, a relative viability (SW 900; first compound 2.53 µM) of 0.551 and a relative viability (SW 900; first compound 8 µM) of 0.567.

In the case of O=c1[nH]c2ccccc2n1C1CCN(CCCC(c2ccc(F)cc2)c2ccc(F)cc2)CC1 [Pimozide] + O=C(c1cc(Cc2n[nH]c(=O)c3ccccc23)ccc1F)N1CCN(C(=O)C2CC2)CC1 [Olaparib] (partner 8 µM), the relative viability (A549; first compound 0.08 µM) was 0.237, the relative viability (A549; first compound 0.253 µM) was 0.319 and the relative viability (A549; first compound 0.8 µM) was 0.271. The relative viability (A549; first compound 2.53 µM) was 0.34, the relative viability (A549; first compound 8 µM) was 0.347 and the relative viability (Calu-6; first compound 0.08 µM) was 0.651. The relative viability (Calu-6; first compound 0.253 µM) was 0.568, the relative viability (Calu-6; first compound 0.8 µM) was 0.597 and the relative viability (Calu-6; first compound 2.53 µM) was 0.575. It also gave a relative viability (Calu-6; first compound 8 µM) of 0.425, a relative viability (EBC-1; first compound 0.08 µM) of 0.651 and a relative viability (EBC-1; first compound 0.253 µM) of 0.695. It also gave a relative viability (EBC-1; first compound 0.8 µM) of 0.723, a relative viability (EBC-1; first compound 2.53 µM) of 0.626 and a relative viability (EBC-1; first compound 8 µM) of 0.676. The relative viability (IA-LM; first compound 0.08 µM) was 0.84, the relative viability (IA-LM; first compound 0.253 µM) was 0.737 and the relative viability (IA-LM; first compound 0.8 µM) was 0.873. The relative viability (IA-LM; first compound 2.53 µM) was 0.82, the relative viability (IA-LM; first compound 8 µM) was 0.812 and the relative viability (NCI-H1299; first compound 0.08 µM) was 0.983. For the same compound, the relative viability (NCI-H1299; first compound 0.253 µM) was 0.973, the relative viability (NCI-H1299; first compound 0.8 µM) was 0.931 and the relative viability (NCI-H1299; first compound 2.53 µM) was 0.948. It also gave a relative viability (NCI-H1299; first compound 8 µM) of 0.898, a relative viability (NCI-H1648; first compound 0.08 µM) of 0.805 and a relative viability (NCI-H1648; first compound 0.8 µM) of 0.522. For the same compound, the relative viability (NCI-H1648; first compound 2.53 µM) was 0.619, the relative viability (NCI-H1648; first compound 8 µM) was 1.1 and the relative viability (NCI-H1703; first compound 0.08 µM) was 0.352. It also gave a relative viability (NCI-H1703; first compound 0.253 µM) of 0.324, a relative viability (NCI-H1703; first compound 0.8 µM) of 0.374 and a relative viability (NCI-H1703; first compound 2.53 µM) of 0.439. The relative viability (NCI-H1703; first compound 8 µM) was 0.341, the relative viability (NCI-H2342; first compound 0.08 µM) was 0.438 and the relative viability (NCI-H2342; first compound 0.253 µM) was 0.355. For the same compound, the relative viability (NCI-H2342; first compound 0.8 µM) was 0.397, the relative viability (NCI-H2342; first compound 2.53 µM) was 0.403 and the relative viability (NCI-H2342; first compound 8 µM) was 0.411. The relative viability (NCI-H522; first compound 0.08 µM) was 0.569, the relative viability (NCI-H522; first compound 0.253 µM) was 0.54 and the relative viability (NCI-H522; first compound 0.8 µM) was 0.751. It also gave a relative viability (NCI-H522; first compound 2.53 µM) of 0.592, a relative viability (NCI-H522; first compound 8 µM) of 0.72 and a relative viability (SW 900; first compound 0.08 µM) of 0.955. The relative viability (SW 900; first compound 0.253 µM) was 0.893, the relative viability (SW 900; first compound 2.53 µM) was 0.839 and the relative viability (SW 900; first compound 8 µM) was 0.892.

O=C(O)CCCCC(CCSCc1ccccc1)SCc1ccccc1 (configuration not stated) [CPI-613] + Cc1nc(Nc2ncc(C(=O)Nc3c(C)cccc3Cl)s2)cc(N2CCN(CCO)CC2)n1 [Dasatinib] (partner 0.075 µM) gave a relative viability (NCI-H1563; first compound 5 µM) of 0.455, a relative viability (NCI-H1563; first compound 15.81 µM) of 0.443 and a relative viability (NCI-H1563; first compound 50 µM) of 0.436. It also gave a relative viability (NCI-H1563; first compound 158.11 µM) of 0.461, a relative viability (NCI-H1563; first compound 500 µM) of 0.456 and a relative viability (NCI-H1623; first compound 5 µM) of 0.592. It also gave a relative viability (NCI-H1623; first compound 15.81 µM) of 0.566, a relative viability (NCI-H1623; first compound 50 µM) of 0.549 and a relative viability (NCI-H1623; first compound 158.11 µM) of 0.39. For the same compound, the relative viability (NCI-H1623; first compound 500 µM) was 0.569, the relative viability (NCI-H2342; first compound 5 µM) was 0.315 and the relative viability (NCI-H2342; first compound 15.81 µM) was 0.275. For the same compound, the relative viability (NCI-H2342; first compound 50 µM) was 0.315, the relative viability (NCI-H2342; first compound 158.11 µM) was 0.286 and the relative viability (NCI-H2342; first compound 500 µM) was 0.294. It also gave a relative viability (NCI-H522; first compound 5 µM) of 0.818, a relative viability (NCI-H522; first compound 15.81 µM) of 1.01 and a relative viability (NCI-H522; first compound 50 µM) of 0.922. It also gave a relative viability (NCI-H522; first compound 158.11 µM) of 0.84, a relative viability (NCI-H522; first compound 500 µM) of 0.494 and a relative viability (SW 900; first compound 5 µM) of 0.692. The relative viability (SW 900; first compound 15.81 µM) was 0.542, the relative viability (SW 900; first compound 50 µM) was 0.686 and the relative viability (SW 900; first compound 158.11 µM) was 0.262. It also gave a relative viability (SW 900; first compound 500 µM) of 0.121.

From the supplement of paper PMC10307832
